Consider 14 compounds from paper PMC9176662, “Design, synthesis, molecular modeling and biological evaluation of novel Benzoxazole-Benzamide conjugates via a 2-Thioacetamido linker as potential anti-proliferative agents, VEGFR-2 inhibitors and apoptotic inducers” (Journal of Enzyme Inhibition and Medicinal Chemistry, 2022).

Series [1] concerns HCT-116 cells. The series is described as follows: Anti-proliferative activity, SRB assay, HCT-116. The format is cell-based, human. The conditions noted are these: for IC50: Homo sapiens, SRB assay, 72 h exposure, mean ± SD of three separate experiments; for HCT-116 SI (selectivity index): ratio of IC50 for normal cells (WI-38) to IC50 for HCT-116. The source says:
(§1) Several of these derivatives were reported as acting as competitive inhibitors of different tyrosine kinases, with potent cytotoxic activity against various cell lines[58]^,[59]. […] Thus, in this study a novel series of benzoxazole-benzamide conjugates was initially evaluated for their potential anti-cancer activity against colon cancer cell line (HCT-116), breast cancer cell line (MCF-7) and normal human fibroblasts (WI-38), using the Sulforhodamine B colorimetric (SRB) assay.
(§2) 2.1. Anti-proliferative activity against HCT-116 and MCF-7 human cancer cells lines.
(§3) The sulforhodamine B (SRB) assays were performed according to Skehan et al..
(§4) Briefly, exponentially growing cells were trypsinized, counted and seeded at the appropriate densities (5000 cells/100 μL/ well) into 96-well microtiter plates. Cells were incubated in a humidified atmosphere at 37 °C for 24 h. Then, the cells were exposed to the tested compounds at the desired concentrations (0.01, 0.1, 1, 10, and 100 μM) or to 1% dimethyl sulfoxide (DMSO) for 72 h. At the end of the treatment period, the media were removed, and the cells were fixed with 10% trichloroacetic acid at 4 °C for 1 h. Following, the cells were washed with tap water four times and incubated with SRB 0.4% for 30 min. Excess dye was removed by washing repeatedly with 1% (vol/vol) acetic acid. The protein-bound dye was dissolved in 10 mM Tris base solution for (optical density) OD determination at 510 nm using a Spectra Max plus Microplate Reader (Molecular Devices, CA). Cell viability was expressed relative to the untreated control cells. […]
In general terms: Sulforhodamine B stains cellular protein and so reports cell mass.

Series [2] concerns MCF-7 cells. Kind of series: Anti-proliferative activity, SRB assay, MCF-7. Format: cell-based, human. The conditions noted are these: for IC50: Homo sapiens, SRB assay, 72 h exposure, mean ± SD of three separate experiments; for MCF-7 SI (selectivity index): ratio of IC50 for normal cells (WI-38) to IC50 for MCF-7.
From the text: as §1, §2, §3, §4

Series [3] concerns WI-38 cells. The series is described as follows: Cytotoxicity against normal fibroblasts, SRB assay, WI-38. The format is cell-based. To be noted: normal human fibroblasts, 72 h, mean ± SD of three separate experiments.
From the text: as §1, §2, §3, §4

For series [4], the target named is T1, VEGFR-2 Protein Kinase (Homo sapiens, UniProt P35968).
T1 construct: It includes active VEGFR-2 kinase; purchased HTScan VEGF Receptor-2 Kinase Assay Kit
T1 sequence (P35968 20-1356): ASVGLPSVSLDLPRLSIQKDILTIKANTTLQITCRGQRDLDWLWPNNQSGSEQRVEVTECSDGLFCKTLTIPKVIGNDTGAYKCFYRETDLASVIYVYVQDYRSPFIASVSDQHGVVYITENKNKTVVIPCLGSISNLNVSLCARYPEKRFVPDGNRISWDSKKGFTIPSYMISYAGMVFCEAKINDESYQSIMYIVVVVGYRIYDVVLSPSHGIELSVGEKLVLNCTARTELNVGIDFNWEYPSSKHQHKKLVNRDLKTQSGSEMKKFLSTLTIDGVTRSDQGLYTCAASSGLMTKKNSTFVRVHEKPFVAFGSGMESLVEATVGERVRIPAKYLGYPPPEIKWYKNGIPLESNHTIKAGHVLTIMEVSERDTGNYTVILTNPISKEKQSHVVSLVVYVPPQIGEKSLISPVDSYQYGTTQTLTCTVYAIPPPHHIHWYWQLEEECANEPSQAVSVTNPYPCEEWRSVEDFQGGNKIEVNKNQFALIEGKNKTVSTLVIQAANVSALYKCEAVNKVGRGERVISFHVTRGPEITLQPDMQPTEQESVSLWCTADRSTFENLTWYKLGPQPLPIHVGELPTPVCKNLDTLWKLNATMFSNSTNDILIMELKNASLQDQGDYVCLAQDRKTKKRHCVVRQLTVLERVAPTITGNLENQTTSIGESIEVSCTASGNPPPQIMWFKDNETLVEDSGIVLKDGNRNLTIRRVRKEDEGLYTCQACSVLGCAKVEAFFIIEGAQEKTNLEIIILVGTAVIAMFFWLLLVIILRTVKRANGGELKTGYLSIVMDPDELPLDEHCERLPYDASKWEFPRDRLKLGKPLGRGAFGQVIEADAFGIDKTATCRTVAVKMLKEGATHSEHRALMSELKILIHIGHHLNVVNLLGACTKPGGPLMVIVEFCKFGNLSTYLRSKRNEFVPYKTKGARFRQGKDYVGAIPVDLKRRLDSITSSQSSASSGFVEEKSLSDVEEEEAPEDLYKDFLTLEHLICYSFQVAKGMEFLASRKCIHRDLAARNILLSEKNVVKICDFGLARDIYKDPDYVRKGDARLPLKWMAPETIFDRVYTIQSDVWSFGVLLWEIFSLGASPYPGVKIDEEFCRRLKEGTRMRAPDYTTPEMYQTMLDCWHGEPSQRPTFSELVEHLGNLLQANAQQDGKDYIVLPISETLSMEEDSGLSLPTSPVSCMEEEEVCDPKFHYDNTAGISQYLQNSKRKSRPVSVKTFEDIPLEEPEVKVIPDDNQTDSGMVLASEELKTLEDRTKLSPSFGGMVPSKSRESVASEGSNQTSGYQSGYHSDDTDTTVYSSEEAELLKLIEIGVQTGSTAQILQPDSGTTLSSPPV
Kind of series: VEGFR-2 inhibitory activity (HTScan VEGF Receptor-2 Kinase Assay Kit, ELISA). The format is biochemical. To be noted: mean of three individual experiments. On the procedure: 2.2. VEGFR-2 Inhibitory activity
VEGFR-2 ELISA (Enzyme-Linked Immunosorbent Assay) kits (HTScan® VEGF Receptor-2 […]
phospho-tyrosine antibody) for detection of the phosphorylated form of the substrate peptide).
On a 96-well plate, a particular VEGFR-2 antibody was seeded and 100 μL of the normal solution or the tested compound tested was applied, incubated at room temperature for 2.5 h and washed. Then, 100 μL of the prepared biotin antibody was added, incubated for an additional 1 h at room temperature and washed. Following, 100 μL of streptavidin solution was added at room temperature, incubated for 45 minutes and then, 100 μL of TMB Substrate solution was applied and incubated at room temperature for 30 minutes. Finally, 50 μL stop solution was added and the absorption was measured at 450 nm instantly. The standard curve, the X -axis concentrations, and the Y-axis absorbance were drawn. […]
In general terms: In an ELISA, binding on a coated surface is turned into a signal by an enzyme label.

The IC50 is the concentration that gives 50% inhibition. Higher therefore signals weaker potency. For orientation: melting point means the temperature of the solid-liquid transition.

Compound `O=C(CSc1nc2ccccc2o1)Nc1ccc(C(=O)Nc2ccccc2)cc1` [Compound 2] returned a melting point of 250 to 252 °C. The compound also yielded an IC50 in series [1] (HCT-116, 72 h) of 18.5 ± 0.014 µM. In addition, the “HCT-116 SI (selectivity index)” value in series [1] is on record as 3.0. Moreover, in series [2] (MCF7, 72 h), the IC50 was found to be 11.7 ± 0.014 µM. In addition, the “MCF-7 SI (selectivity index)” value in series [2] is given as 4.8. The compound further came in with an IC50 in series [3] of 56.7 ± 0.36 µM.

Consider `O=C(CSc1nc2ccccc2o1)Nc1ccc(C(=O)Nc2ccc(Cl)cc2)cc1` [Compound 3], for which the melting point fell in the range of 238 to 240 °C. This compound also had an IC50 in series [1] (HCT-116, 72 h) of 24.2 ± 0.019 µM. Also, the “HCT-116 SI (selectivity index)” value in series [1] worked out at 2.4. Half-maximal inhibition in series [2] (MCF7, 72 h) (IC50) was put at 22.7 ± 0.008 µM. For the same compound, the “MCF-7 SI (selectivity index)” value in series [2] came out at 2.6. In series [3], this compound registered an IC50 of 59.3 ± 0.45 µM.

`COc1ccc(NC(=O)c2ccc(NC(=O)CSc3nc4ccccc4o3)cc2)cc1` [Compound 4] had a melting point of 260 to 262 °C. Also, the IC50 in series [1] (HCT-116, 72 h) was 23.2 ± 0.012 µM. Besides, the “HCT-116 SI (selectivity index)” value in series [1] is recorded as 2.2. The IC50 in series [2] (MCF7, 72 h) is 23.6 ± 0.015 µM. In addition, the “MCF-7 SI (selectivity index)” value in series [2] is 2.2. For the same compound, in series [3], the IC50 was determined as 51.5 ± 0.4 µM.

As for `Cc1ccc2oc(SCC(=O)Nc3ccc(C(=O)NC4CCCCC4)cc3)nc2c1` [Compound 5], the melting point fell in the range of 256 to 258 °C. In series [1] (HCT-116, 72 h), half-maximal inhibition (IC50) required 20.9 ± 0.025 µM. Also, in series [1], the “HCT-116 SI (selectivity index)” value was 4.0. Inhibition in series [2] (MCF7, 72 h) was half-maximal at 12.4 ± 0.007 µM (IC50). In addition, the “MCF-7 SI (selectivity index)” value in series [2] came out at 6.9. Besides, half-maximal inhibition in series [3] (IC50) was put at 85.4 ± 0.55 µM.

In turn, `Cc1ccc2oc(SCC(=O)Nc3ccc(C(=O)Nc4ccccc4)cc3)nc2c1` [Compound 6] had a melting point of 240 to 242 °C. In addition, in series [1] (HCT-116, 72 h), the IC50 was determined as 30.7 ± 0.011 µM. Further, in series [1], the “HCT-116 SI (selectivity index)” value is given as 4.0. 19.1 ± 0.006 µM corresponded to half-maximal inhibition in series [2] (MCF7, 72 h) (IC50). For the same compound, the “MCF-7 SI (selectivity index)” value in series [2] is on record as 6.5. This compound also displayed an IC50 in series [3] of 124.6 ± 0.7 µM.

In turn, `Cc1ccc2oc(SCC(=O)Nc3ccc(C(=O)Nc4ccc(Cl)cc4)cc3)nc2c1` [Compound 7] displayed a melting point of 265 to 267 °C. In series [1] (HCT-116, 72 h), this compound yielded an IC50 of 32 ± 0.002 µM. In addition, the “HCT-116 SI (selectivity index)” value in series [1] came to 4.0. This compound returned an IC50 in series [2] (MCF7, 72 h) of 24 ± 0.011 µM. The “MCF-7 SI (selectivity index)” value in series [2] came out at 5.3. This compound came in with an IC50 in series [3] of 128.2 ± 0.75 µM.

In the case of `COc1ccc(NC(=O)c2ccc(NC(=O)CSc3nc4cc(C)ccc4o3)cc2)cc1` [Compound 8], the melting point was 258 to 260 °C. Also, inhibition in series [1] (HCT-116, 72 h) was half-maximal at 28.8 ± 0.01 µM (IC50). Also, the “HCT-116 SI (selectivity index)” value in series [1] is recorded as 4.7. Also, the half-inhibitory concentration (IC50) in series [2] (MCF7, 72 h) worked out at 22.3 ± 0.004 µM. Besides, the “MCF-7 SI (selectivity index)” value in series [2] was determined as 6.0. The compound also came in with an IC50 in series [3] of 135.4 ± 0.85 µM.

Compound `O=C(CSc1nc2cc(Cl)ccc2o1)Nc1ccc(C(=O)NC2CCCCC2)cc1` [Compound 9] returned a melting point of 260 to 262 °C. Besides, the IC50 in series [1] (HCT-116, 72 h) was 17.1 ± 0.008 µM. For the same compound, in series [1], the “HCT-116 SI (selectivity index)” value came to 4.4. This compound yielded an IC50 in series [2] (MCF7, 72 h) of 12.3 ± 0.008 µM. For the same compound, the “MCF-7 SI (selectivity index)” value in series [2] is given as 6.0. Moreover, the IC50 in series [3] is 74.6 ± 0.53 µM. Also, the IC50 in series [4] is 0.649 ± 0.008 µM.

`O=C(CSc1nc2cc(Cl)ccc2o1)Nc1ccc(C(=O)Nc2ccccc2)cc1` [Compound 10] gave a melting point of 245 to 247 °C. The compound also had an IC50 in series [1] (HCT-116, 72 h) of 16.7 ± 0.012 µM. For the same compound, the “HCT-116 SI (selectivity index)” value in series [1] amounted to 7.5. Also, the concentration for half-maximal inhibition (IC50) in series [2] (MCF7, 72 h) was 16.1 ± 0.011 µM. The “MCF-7 SI (selectivity index)” value in series [2] came out at 7.8. In series [3], this compound gave an IC50 of 125.5 ± 0.72 µM. This compound displayed an IC50 in series [4] of 0.704 ± 0.009 µM.

`COc1ccc(NC(=O)c2ccc(NC(=O)CSc3nc4cc(Cl)ccc4o3)cc2)cc1` [Compound 12] yielded a melting point of 266 to 268 °C. Besides, in series [1] (HCT-116, 72 h), the IC50 was 10.4 ± 0.01 µM. The “HCT-116 SI (selectivity index)” value in series [1] worked out at 12.1. Further, half-maximal inhibition in series [2] (MCF7, 72 h) (IC50) was put at 9.4 ± 0.016 µM. For the same compound, in series [2], the “MCF-7 SI (selectivity index)” value is 13.4. This compound also returned an IC50 in series [3] of 126.2 ± 0.75 µM. Also, the IC50 in series [4] stood at 0.385 ± 0.005 µM.

As for `O=C(CSc1nc2ccccc2o1)Nc1ccc(C(=O)NNC(=O)c2ccccc2)cc1` [Compound 13], the melting point lay within 270 to 272 °C. This compound also returned an IC50 in series [1] (HCT-116, 72 h) of 9.1 ± 0.005 µM. Further, in series [1], the “HCT-116 SI (selectivity index)” value worked out at 10.0. This compound also registered an IC50 in series [2] (MCF7, 72 h) of 9 ± 0.005 µM. Besides, the “MCF-7 SI (selectivity index)” value in series [2] is 10.1. For the same compound, the IC50 in series [3] is 91.3 ± 0.6 µM.

In turn, `Cc1ccc2oc(SCC(=O)Nc3ccc(C(=O)NNC(=O)c4ccccc4)cc3)nc2c1` [Compound 14] displayed a melting point of 250 to 252 °C. The compound further returned an IC50 in series [1] (HCT-116, 72 h) of 9.7 ± 0.013 µM. Moreover, the “HCT-116 SI (selectivity index)” value in series [1] worked out at 9.9. This compound also returned an IC50 in series [2] (MCF7, 72 h) of 9.5 ± 0.009 µM. In series [2], the “MCF-7 SI (selectivity index)” value worked out at 10.1. In series [3], this compound gave an IC50 of 96.5 ± 0.65 µM.

As to `O=C(CSc1nc2cc(Cl)ccc2o1)Nc1ccc(C(=O)NNC(=O)c2ccccc2)cc1` [Compound 15], the melting point lay in the range of 277 to 279 °C. The compound further displayed an IC50 in series [1] (HCT-116, 72 h) of 12.9 ± 0.014 µM. Moreover, in series [1], the “HCT-116 SI (selectivity index)” value is on record as 10.2. Moreover, the IC50 in series [2] (MCF7, 72 h) came out at 15.3 ± 0.01 µM. In series [2], the “MCF-7 SI (selectivity index)” value was determined as 8.6. Also, in series [3], half-maximal inhibition (IC50) was put at 131.5 ± 0.8 µM. The IC50 in series [4] amounted to 0.597 ± 0.007 µM.

For the compound `CNC(=O)c1cc(Oc2ccc(NC(=O)Nc3ccc(Cl)c(C(F)(F)F)c3)cc2)ccn1` [Sorafenib, reference compound], the IC50 in series [1] (HCT-116) turned out to be 11.6 ± 0.012 µM; in series [2] (MCF7), 10.5 ± 0.014 µM.
